This assay relates to mice (wild-type and MAS receptor gene homozygous mutant). Nature of the assay: Metrazol administration test (metrazol dose testing, seizure susceptibility). The class given is in vivo, mouse. As to conditions: for Dose (mg/kg body weight), Observable: T/C / Dose (mg/kg body weight), Observable: Death / Dose (mg/kg body weight), Observable: Twitch / Dose (mg/kg body weight), Observable: Extension: F2N1 mice; for Dose (mg/kg body weight), Observable: T/C: metrazol dose to T/C seizure; for Dose (mg/kg body weight), Observable: Death: metrazol dose to death; for Dose (mg/kg body weight), Observable: Twitch: metrazol dose to first twitch; for Dose (mg/kg body weight), Observable: Extension: metrazol dose to tonic extension. The procedure: A metrazol administration test can be used to screen animals for varying susceptibilities to seizures or similar events. For example, a 5 mg/ml solution of metrazol can be infused through the tail vein of a mouse at a rate of, e.g., approximately 0.375 ml/min. The infusion will cause all mice to experience seizures, followed by death. Those mice that enter the seizure stage the soonest are believed to be more prone to seizures.
The transgenic mice were analyzed for phenotypic changes. […] These characteristics response parameters are: (1) first twitch; (2) tonic/clonic seizure; (3) tonic extension, […]; and (4) death.

The mark [1] stands for this setting: genotype −/− (MAS homozygous mutant).

The structures appear in SMILES notation.

On to `C1CCc2nnnn2CC1` [metrazol], for which, where the note is “genotype +/+ (wild-type)”, the “Dose (mg/kg body weight), Observable: T/C” value stood at 37.94 mg/kg body weight; the “Dose (mg/kg body weight), Observable: Death” value was found to be 96.27 mg/kg body weight; the “Dose (mg/kg body weight), Observable: Twitch” value came to 25.59 mg/kg body weight; the “Dose (mg/kg body weight), Observable: Extension” value is listed as 75.60 mg/kg body weight. Under setting [1], the “Dose (mg/kg body weight), Observable: T/C” value stood at 45.28 mg/kg body weight; the “Dose (mg/kg body weight), Observable: Death” value is on record as 138.55 mg/kg body weight; the “Dose (mg/kg body weight), Observable: Twitch” value was found to be 33.95 mg/kg body weight; the “Dose (mg/kg body weight), Observable: Extension” value is 115.89 mg/kg body weight. Also, under “homozygous mutants as compared to wild-type animals”, the “response threshold to metrazol” value is recorded as “increased”.

Values taken from patent publication US20020088018A1, “Transgenic mice containing MAS orphan receptor gene disruptions” (priority 2000, published 2002).
